Data set [1] deals with T1, DNA ligase 1 (Homo sapiens, UniProt P18858). As to the kind of experiment: Inhibition of human DNA ligase 1 expressed in Escherichia coli BL21(DE3)RP cells assessed as reduction in fluorescently labelled ds nicked DNA substrate ligation at 100 uM after 30 mins by urea gel based imaging method relative to control.
In a further data set the test system is HepG2. Nature of the data set: Cytotoxicity against human HepG2 cells assessed as cell death at 10 uM after 48 hrs by MTT assay relative to control. The format is functional.
The test system of another data set is A549. Nature of the data set: Cytotoxicity against human A549 cells assessed as cell death at 10 uM after 48 hrs by MTT assay relative to control. The format is functional. For orientation: Tetrazolium assays rely on reduction of a dye to a coloured formazan, in cell work by metabolically active cells.
A further data set has as its system HCT-116. Nature of the data set: Cytotoxicity against human HCT116 cells assessed as cell death at 10 uM after 48 hrs by MTT assay relative to control. It is filed as functional.
In another data set the test system is DLD-1. Nature of the data set: Cytotoxicity against human DLD1 cells assessed as cell death at 10 uM after 48 hrs by MTT assay relative to control. The format is functional.
A further data set concerns MDA-MB-231. Nature of the data set: Cytotoxicity against human MDA-MB-231 cells assessed as cell death at 10 uM after 48 hrs by MTT assay relative to control. It is filed as functional.
The subject of another data set is HEK293. As to the kind of experiment: Cytotoxicity against HEK293 cells assessed as cell death at 10 uM after 48 hrs by MTT assay relative to control. It is filed as cell-based. The settings on record: human, hek293, 48 h.
Data set [2] concerns the target T1, DNA ligase 1. As to the kind of experiment: Residual activity of human DNA ligase 1 expressed in Escherichia coli BL21(DE3)RP cells assessed as DNA ligation at 100 uM using fluorescently labelled ds nicked DNA as substrate after 30 mins by urea gel based imaging method relative to control.

T1 sequence (P18858 whole entry): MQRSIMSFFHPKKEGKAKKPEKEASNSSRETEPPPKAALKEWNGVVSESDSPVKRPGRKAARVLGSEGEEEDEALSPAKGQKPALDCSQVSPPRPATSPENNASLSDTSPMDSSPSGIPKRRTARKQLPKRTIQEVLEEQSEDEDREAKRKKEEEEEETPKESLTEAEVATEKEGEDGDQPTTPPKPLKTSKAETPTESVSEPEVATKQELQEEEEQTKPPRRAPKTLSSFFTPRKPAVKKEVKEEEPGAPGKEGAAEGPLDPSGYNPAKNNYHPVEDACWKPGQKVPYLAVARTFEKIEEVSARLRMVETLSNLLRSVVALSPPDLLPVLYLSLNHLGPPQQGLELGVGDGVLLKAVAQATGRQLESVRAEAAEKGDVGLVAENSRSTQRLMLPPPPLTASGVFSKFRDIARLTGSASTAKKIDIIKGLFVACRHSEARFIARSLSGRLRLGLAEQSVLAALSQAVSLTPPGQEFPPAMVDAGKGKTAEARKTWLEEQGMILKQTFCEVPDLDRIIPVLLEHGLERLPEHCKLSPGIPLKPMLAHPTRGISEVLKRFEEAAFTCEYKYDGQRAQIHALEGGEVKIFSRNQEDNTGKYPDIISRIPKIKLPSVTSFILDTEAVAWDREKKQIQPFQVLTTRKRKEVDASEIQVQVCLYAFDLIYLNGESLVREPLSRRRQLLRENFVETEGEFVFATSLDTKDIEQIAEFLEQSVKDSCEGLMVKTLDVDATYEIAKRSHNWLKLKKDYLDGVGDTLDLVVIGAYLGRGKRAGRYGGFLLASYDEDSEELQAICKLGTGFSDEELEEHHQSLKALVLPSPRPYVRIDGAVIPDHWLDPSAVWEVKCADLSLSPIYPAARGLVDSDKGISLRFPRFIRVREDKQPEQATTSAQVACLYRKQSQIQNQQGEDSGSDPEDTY

As usually defined, the inhibition is the relative decrease from the control value, in per cent. For the compound `CCOC(=O)C1=C(C)NC(=O)NC1c1cc(/C=N/NC(=O)Nc2ccc(F)cc2)c(O)c(C(C)(C)C)c1` (stereo unspecified), at DNA ligase 1 [1], the inhibition was determined as 84.7%. For the same compound, the Activity in the data set on HepG2 is reported as 37.1%; with A549 it was 39.3%; in the data set on HCT-116, 17.5%; in the data set on DLD-1, 19.1%; in the data set with MDA-MB-231 it was 43.7%; with HEK293 it was 46.8%. Besides, the ligation on DNA ligase 1 [2] was 15.3%.
Take `CCOC(=O)C1=C(C)NC(=O)NC1c1cc(C)c(O)c(/C=N/NC(N)=O)c1` (stereo unspecified): the inhibition on DNA ligase 1 [1] is 64.3%. Moreover, the Activity was 9.7% with HepG2; 7% with A549; 4.3% in the data set on HCT-116; -3% with DLD-1; 13.9% in the data set with MDA-MB-231; 15.7% in the data set on HEK293. In addition, the ligation on DNA ligase 1 [2] was found to be 35.7%.
As to `CCOC(=O)C1=C(C)NC(=O)NC1c1cc(/C=N/NC(N)=O)c(O)c(C(C)(C)C)c1` (stereo unspecified), the inhibition at DNA ligase 1 [1] is 77.6%. Further, the Activity in the data set with HepG2 was found to be 0.7%; with A549 it was 9.1%; with HCT-116 it was 2.6%; in the data set with DLD-1, 19.9%; with MDA-MB-231, 18.4%; in the data set on HEK293 it was 14%. The ligation at DNA ligase 1 [2] came out at 22.4%.
Regarding `CCOC(=O)C1=C(C)NC(=O)NC1c1cc(/C=N/NC(=S)Nc2ccc(Cl)cc2)c(O)c(C(C)(C)C)c1` (stereo unspecified), at DNA ligase 1 [1], the inhibition is 80.9%. Further, the Activity in the data set on HepG2 amounted to 78.9%; with A549, 53.3%; with HCT-116 it was 82.5%; in the data set with DLD-1, 43%; in the data set on MDA-MB-231 it was 83.6%; in the data set on HEK293 it was 53.1%. The ligation on DNA ligase 1 [2] turned out to be 19.1%.
Regarding `CCOC(=O)C1=C(C)NC(=S)NC1c1cc(/C=N/NC(=S)Nc2ccc(C)cc2)c(O)c(C(C)(C)C)c1` (stereo unspecified), the inhibition on DNA ligase 1 [1] worked out at 68.9%. Besides, the Activity in the data set on HepG2 amounted to 23.5%; in the data set on A549, 9.3%; in the data set on HCT-116, 50.5%; in the data set on DLD-1 it was 45.7%; in the data set with MDA-MB-231 it was 3.3%; in the data set with HEK293, 40.2%. The ligation at DNA ligase 1 [2] amounted to 31.1%.
Turning to `CCOC(=O)C1=C(C)NC(=O)NC1c1cc(C)c(O)c(/C=N/NC(N)=S)c1` (stereo unspecified), at DNA ligase 1 [1], the inhibition was 84.1%. Further, the Activity in the data set on HepG2 is recorded as 23.3%; with A549, 4.7%; in the data set with HCT-116, 1.3%; in the data set with DLD-1, 6.2%; with MDA-MB-231 it was 10.7%; in the data set on HEK293 it was 6.7%. For the same compound, the ligation at DNA ligase 1 [2] is 15.9%.
On to `CCOC(=O)C1=C(C)NC(=O)NC1c1cc(/C=N/NC(=O)Nc2ccc(Br)cc2)c(O)c(C(C)(C)C)c1` (stereo unspecified), for which the inhibition at DNA ligase 1 [1] was found to be 84%. Also, the Activity is 65.3% with HepG2; 45.3% with A549; 57.2% with HCT-116; 60.2% in the data set with DLD-1; 44.8% in the data set on MDA-MB-231; 35.3% with HEK293. For the same compound, the ligation on DNA ligase 1 [2] came to 16%.
As to `CCOC(=O)C1=C(C)NC(=S)NC1c1cc(/C=N/NC(=S)Nc2ccccc2)c(O)c(C(C)(C)C)c1` (stereo unspecified), the inhibition at DNA ligase 1 [1] is 66.8%. Moreover, the Activity in the data set with HepG2 worked out at 26.5%; with A549, 29.6%; with HCT-116 it was 49.9%; in the data set with DLD-1 it was 67.6%; in the data set on MDA-MB-231 it was 26.1%; in the data set on HEK293, 54.1%. Further, the ligation on DNA ligase 1 [2] is 33.2%.
On to `CCOC(=O)C1=C(C)NC(=S)NC1c1cc(C)c(O)c(/C=N/NC(=O)Nc2ccc(Cl)cc2)c1` (stereo unspecified), for which the inhibition on DNA ligase 1 [1] amounted to 86.7%. Moreover, the Activity came out at 22.8% with HepG2; 12.8% in the data set on A549; 50.8% in the data set on HCT-116; 1% in the data set on DLD-1; 20.2% with MDA-MB-231; 42.6% in the data set on HEK293. For the same compound, the ligation at DNA ligase 1 [2] was determined as 13.4%.
Turning to `CCOC(=O)C1=C(C)NC(=S)NC1c1cc(/C=N/NC(=S)Nc2ccc(Cl)cc2)c(O)c(C(C)(C)C)c1` (stereo unspecified), the inhibition at DNA ligase 1 [1] came to 79.4%. Moreover, the Activity in the data set with HepG2 was determined as 28.9%; with A549, 24.5%; with HCT-116, 57.8%; with DLD-1, 15.5%; in the data set with MDA-MB-231, 17.3%; in the data set with HEK293 it was 52.7%. For the same compound, the ligation at DNA ligase 1 [2] was found to be 20.6%.
On to `CCOC(=O)C1=C(C)NC(=O)NC1c1cc(/C=N/NC(=S)NC)c(O)c(C(C)(C)C)c1` (stereo unspecified), for which the inhibition at DNA ligase 1 [1] amounted to 80.8%. Moreover, the Activity in the data set on HepG2 amounted to 23.7%; with A549 it was 27.3%; in the data set with HCT-116, 22.5%; with DLD-1, 34.1%; with MDA-MB-231 it was 29.7%; with HEK293, 24.6%. In addition, the ligation at DNA ligase 1 [2] turned out to be 19.2%.
As for `CCOC(=O)C1=C(C)NC(=S)NC1c1cc(/C=N/NC(=O)Nc2ccc(Cl)cc2)c(O)c(C(C)(C)C)c1` (stereo unspecified), the inhibition at DNA ligase 1 [1] was found to be 77.1%. Besides, the Activity in the data set on HepG2 was 81.3%; in the data set on A549 it was 54%; in the data set on HCT-116, 63.3%; with DLD-1, 17.1%; in the data set on MDA-MB-231, 13.8%; with HEK293, 65.7%. For the same compound, the ligation at DNA ligase 1 [2] was 22.9%.
Consider `CCOC(=O)C1=C(C)NC(=O)NC1c1cc(C)c(O)c(C=O)c1` (stereo unspecified), for which, on DNA ligase 1 [1], the inhibition came out at 76.9%. Moreover, the Activity stood at 18.3% in the data set with HepG2; 34.7% in the data set on A549; 5.7% in the data set with HCT-116; 14.7% in the data set with DLD-1; 32.5% in the data set on MDA-MB-231; 9.2% with HEK293. Moreover, at DNA ligase 1 [2], the ligation was 23.1%.
In the case of `CCOC(=O)C1=C(C)NC(=O)NC1c1cc(/C=N/NC(N)=S)c(O)c(C(C)(C)C)c1` (stereo unspecified), the inhibition at DNA ligase 1 [1] turned out to be 80.4%. In addition, the Activity was found to be 11.1% in the data set on HepG2; 17% with A549; 7.8% in the data set on HCT-116; 5.5% in the data set on DLD-1; 21.1% with MDA-MB-231; 17% in the data set on HEK293. Besides, at DNA ligase 1 [2], the ligation amounted to 19.6%.
`CCOC(=O)C1=C(C)NC(=S)NC1c1cc(/C=N/NC(=O)Nc2ccccc2)c(O)c(C(C)(C)C)c1` (stereo unspecified): the inhibition on DNA ligase 1 [1] was found to be 80.9%. The Activity in the data set on HepG2 was found to be 26%; with A549, 26.8%; in the data set on HCT-116 it was 17.9%; in the data set on DLD-1 it was 17.6%; with MDA-MB-231 it was 7%; in the data set with HEK293, 53.3%. For the same compound, the ligation at DNA ligase 1 [2] came out at 19.1%.
Consider `CCOC(=O)C1=C(C)NC(=O)NC1c1cc(C)c(O)c(/C=N/NC(=S)NC)c1` (stereo unspecified), for which, at DNA ligase 1 [1], the inhibition came to 80.4%. The Activity worked out at 33.1% with HepG2; 14% with A549; 17.7% in the data set on HCT-116; 18.1% in the data set with DLD-1; 31% with MDA-MB-231; 22.7% with HEK293. Besides, the ligation on DNA ligase 1 [2] was 19.6%.
For `CCOC(=O)C1=C(C)NC(=O)NC1c1cc(C=O)c(O)c(C(C)(C)C)c1` (stereo unspecified), the inhibition on DNA ligase 1 [1] was 73.6%. Moreover, the Activity is 11.4% in the data set with HepG2; 25.4% in the data set with A549; 1.8% with HCT-116; 8.1% in the data set on DLD-1; 20.7% in the data set with MDA-MB-231; 10.7% with HEK293. For the same compound, the ligation at DNA ligase 1 [2] is 26.4%.

(Values after ChEMBL document CHEMBL4190183 (Medchemcomm, 2016).)
